Laboratory results reported in patent publication US12325706B2, “Polymorphic form of sepiapterin” (PTC Therapeutics MP, Inc., priority 2016, dated 2025).
Converted amounts (≈) assume the structure as drawn. “Also recorded” adds a separate entry of the source.

Columns and labels:
Assay type in all cases: physicochemical
[1] = Storage stability of sepiapterin polymorph forms, HPLC purity; set-up: Impurity RRT 1.06 (HPLC) / Impurity RRT 1.08 (HPLC) / Impurity RRT 1.17 (HPLC) / Impurity RRT 1.21 (HPLC) / Impurity RRT 1.25 (HPLC) / Impurity RRT 0.62 (HPLC) / Impurity RRT 0.89 (HPLC) / Impurity RRT 0.95 (HPLC) / Impurity RRT 0.60 (HPLC): unit not given here; conditions: for % of Initial / Purity (area %): 10% RH
Description: (§1) Form A and F samples were placed in chambers with silica gel to remove water (the relative humidity was measured to be ˜10% RH) at different temperatures. Form D samples were placed in chambers with water (relative humidity was estimated to be ˜100% RH) at different temperatures.
(§2) The HPLC purities and XRD patterns were obtained for each of Form A/F/D samples stored at various temperatures.
Samples of sepiapterin free base polymorph Forms D, F, and A were stored at room temperature (RT), 35° C., and 50° C. The samples were analyzed by HPLC at 1 week and 4 week intervals.

[2] = Stability of crystalline Form A to grinding and sieving (XRPD); conditions: mortar and pestle, 140 mesh sieve
Description: A weight loss of 5.3% was observed up to 150° C. on TGA. […] (peak temperature). The starting material contained large particles with size over 100 μm. It was ground and characterized by XRPD, TGA and DSC. […] A weight loss of 1.9% was observed after N2 purging for 30 min to remove the absorbed water, followed by a second-step weight loss of 13.7% from 30° C. to 150° C. on TGA. […] (peak temperature).
Crystalline form A of sepiapterin of the invention was subjected to grinding and sieving process comprising grinding with a mortar and pestle and passing the material through a 140 mesh sieve. […] This process was repeated until all material was passed through the sieve.

[3] = Storage stability of sepiapterin polymorph forms, form change by XRD; conditions: 10% RH
Description: as §1, §2

[4] = Approximate solubility of starting material at RT
[5] = 35° C./10% RH, 1 w, listed as Polymorph A
[6] = 35° C./10% RH, 4 w, listed as Polymorph A
[7] = 50° C./10% RH, 1 w, listed as Polymorph A
[8] = 50° C./10% RH, 4 w, listed as Polymorph A
[9] = RT/10% RH, 1 w, listed as Polymorph A
[10] = RT/10% RH, 4 w, listed as Polymorph A

- Impurity RRT 0.62 (HPLC) ([1]; 35° C./10% RH, 1 w): 0.24
- Impurity RRT 0.89 (HPLC) ([1]; 35° C./10% RH, 1 w): <0.05
- Impurity RRT 1.06 (HPLC) ([1]; 35° C./10% RH, 1 w): <0.05
- Impurity RRT 1.21 (HPLC) ([1]; 35° C./10% RH, 1 w): <0.05
- Impurity RRT 1.25 (HPLC) ([1]; 35° C./10% RH, 1 w): <0.05
- Impurity RRT 0.95 (HPLC) [1, 5]: 1.36
- Impurity RRT 1.08 (HPLC) [1, 5]: 0.28
- Impurity RRT 1.17 (HPLC) [1, 5]: 0.16
- Sepiapterin RRT 1.00 (HPLC), amount of sepiapterin [1, 5]: 97.97%
- Impurity RRT 0.62 (HPLC) ([1]; 35° C./10% RH, 4 w): 1.03
- Impurity RRT 0.89 (HPLC) ([1]; 35° C./10% RH, 4 w): <0.05
- Impurity RRT 1.06 (HPLC) ([1]; 35° C./10% RH, 4 w): <0.05
- Impurity RRT 1.08 (HPLC) ([1]; 35° C./10% RH, 4 w): <0.05
- Impurity RRT 1.21 (HPLC) ([1]; 35° C./10% RH, 4 w): <0.05
- Impurity RRT 1.25 (HPLC) ([1]; 35° C./10% RH, 4 w): <0.05
- Impurity RRT 0.95 (HPLC) [1, 6]: 2.70
- Impurity RRT 1.17 (HPLC) [1, 6]: 0.16
- Sepiapterin RRT 1.00 (HPLC), amount of sepiapterin [1, 6]: 96.06%
- Impurity RRT 0.62 (HPLC) ([1]; 50° C./10% RH, 1 w): 0.68
- Impurity RRT 0.89 (HPLC) ([1]; 50° C./10% RH, 1 w): <0.05
- Impurity RRT 1.06 (HPLC) ([1]; 50° C./10% RH, 1 w): 0.45
- Impurity RRT 1.21 (HPLC) ([1]; 50° C./10% RH, 1 w): <0.05
- Impurity RRT 1.25 (HPLC) ([1]; 50° C./10% RH, 1 w): <0.05
- Impurity RRT 0.95 (HPLC) [1, 7]: 3.48
- Impurity RRT 1.08 (HPLC) [1, 7]: 0.08
- Impurity RRT 1.17 (HPLC) [1, 7]: 0.16
- Sepiapterin RRT 1.00 (HPLC), amount of sepiapterin [1, 7]: 95.15%
- Impurity RRT 0.62 (HPLC) ([1]; 50° C./10% RH, 4 w): 2.59
- Impurity RRT 0.89 (HPLC) ([1]; 50° C./10% RH, 4 w): 0.06
- Impurity RRT 1.06 (HPLC) ([1]; 50° C./10% RH, 4 w): <0.05
- Impurity RRT 1.17 (HPLC) ([1]; 50° C./10% RH, 4 w): 0.17
- Impurity RRT 1.21 (HPLC) ([1]; 50° C./10% RH, 4 w): 0.06
- Impurity RRT 1.25 (HPLC) ([1]; 50° C./10% RH, 4 w): 0.11
- Impurity RRT 0.95 (HPLC) [1, 8]: 7.67
- Impurity RRT 1.08 (HPLC) [1, 8]: 0.85
- Sepiapterin RRT 1.00 (HPLC), amount of sepiapterin [1, 8]: 88.49%
- Sepiapterin RRT 1.00 (HPLC), amount of sepiapterin ([1]; 50° C./10% RH, 4 w, listed as polymorph A): 88.49%
- Impurity RRT 0.89 (HPLC) ([1]; Initial): <0.05
- Impurity RRT 1.06 (HPLC) ([1]; Initial): <0.05
- Impurity RRT 1.08 (HPLC) ([1]; Initial): <0.05
- Impurity RRT 1.17 (HPLC) ([1]; Initial): 0.17
- Impurity RRT 1.21 (HPLC) ([1]; Initial): <0.05
- Impurity RRT 1.25 (HPLC) ([1]; Initial): <0.05
- Impurity RRT 0.62 (HPLC) ([1]; Initial, listed as Polymorph A): 0.08
- Impurity RRT 0.95 (HPLC) ([1]; Initial, listed as Polymorph A): 0.42
- Sepiapterin RRT 1.00 (HPLC), amount of sepiapterin ([1]; Initial, listed as Polymorph A): 99.33%
- Sepiapterin RRT 1.00 (HPLC), amount of sepiapterin ([1]; Initial, listed as polymorph A): 99.33%
- Impurity RRT 0.62 (HPLC) ([1]; RT/10% RH, 1 w): 0.16
- Impurity RRT 0.89 (HPLC) ([1]; RT/10% RH, 1 w): <0.05
- Impurity RRT 1.06 (HPLC) ([1]; RT/10% RH, 1 w): <0.05
- Impurity RRT 1.17 (HPLC) ([1]; RT/10% RH, 1 w): 0.16
- Impurity RRT 1.21 (HPLC) ([1]; RT/10% RH, 1 w): <0.05
- Impurity RRT 1.25 (HPLC) ([1]; RT/10% RH, 1 w): <0.05
- Impurity RRT 0.95 (HPLC) [1, 9]: 0.77
- Impurity RRT 1.08 (HPLC) [1, 9]: 0.11
- Sepiapterin RRT 1.00 (HPLC), amount of sepiapterin [1, 9]: 98.80%
- Impurity RRT 0.62 (HPLC) ([1]; RT/10% RH, 4 w): 0.37
- Impurity RRT 0.89 (HPLC) ([1]; RT/10% RH, 4 w): <0.05
- Impurity RRT 1.06 (HPLC) ([1]; RT/10% RH, 4 w): <0.05
- Impurity RRT 1.08 (HPLC) ([1]; RT/10% RH, 4 w): <0.05
- Impurity RRT 1.17 (HPLC) ([1]; RT/10% RH, 4 w): 0.16
- Impurity RRT 1.21 (HPLC) ([1]; RT/10% RH, 4 w): <0.05
- Impurity RRT 1.25 (HPLC) ([1]; RT/10% RH, 4 w): <0.05
- Impurity RRT 0.95 (HPLC) [1, 10]: 1.29
- Sepiapterin RRT 1.00 (HPLC), amount of sepiapterin [1, 10]: 98.18%
- Purity of initial samples by HPLC ([1]; initial, before storage, listed as Form λ): 99.3 area %
- % of Initial ([1]; storage 1 week, 35° C.): 98.6%
- Purity (area %) ([1]; storage 1 week, 35° C.): 98.0 area %
- % of Initial ([1]; storage 1 week, 50° C.): 95.8%
- Purity (area %) ([1]; storage 1 week, 50° C.): 95.2 area %
- % of Initial ([1]; storage 1 week, RT): 99.5%
- Purity (area %) ([1]; storage 1 week, RT): 98.8 area %
- % of Initial ([1]; storage 4 weeks, 35° C.): 96.7%
- Purity (area %) ([1]; storage 4 weeks, 35° C.): 96.1 area %
- % of Initial ([1]; storage 4 weeks, 50° C.): 89.1%
- Purity (area %) ([1]; storage 4 weeks, 50° C.): 88.5 area %
- % of Initial ([1]; storage 4 weeks, RT): 98.8%
- Purity (area %) ([1]; storage 4 weeks, RT): 98.2 area %
- Stability on storage as determined by HPLC, comparison of forms in words ([1]; storage up to 4 weeks at RT, 35° C., 50° C.): significantly less stability
- Form change ([3]; storage 1 week, 35° C.): No
- Form change ([3]; storage 1 week, 50° C.): No
- Form change ([3]; storage 1 week, RT): No
- Form change ([3]; storage 4 weeks, 35° C.): No
- Form change ([3]; storage 4 weeks, 50° C.): No
- Form change ([3]; storage 4 weeks, RT): No
- solubility ([4]; organic solvent or mixture, 1,4-Dioxane, RT): < 1700 µg/mL
- solubility ([4]; organic solvent or mixture, 2-MeTHF, RT): < 2000 µg/mL
- solubility ([4]; organic solvent or mixture, ACN, RT): < 1700 µg/mL
- solubility ([4]; organic solvent or mixture, Acetone, RT): < 1800 µg/mL
- solubility ([4]; organic solvent or mixture, CHCl3, RT): < 1600 µg/mL
- solubility ([4]; organic solvent or mixture, DCM, RT): < 1500 µg/mL
- solubility ([4]; organic solvent or mixture, DMAc, RT): > 28000 µg/mL
- solubility ([4]; organic solvent or mixture, DMSO, RT): > 34000 µg/mL
- solubility ([4]; organic solvent or mixture, EtOAc, RT): < 2500 µg/mL
- solubility ([4]; organic solvent or mixture, EtOH, RT): < 1500 µg/mL
- solubility ([4]; organic solvent or mixture, IPA, RT): < 1300 µg/mL
- solubility ([4]; organic solvent or mixture, IPAc, RT): < 2700 µg/mL
- solubility ([4]; organic solvent or mixture, MIBK, RT): < 2000 µg/mL
- solubility ([4]; organic solvent or mixture, MTBE, RT): < 2000 µg/mL
- solubility ([4]; organic solvent or mixture, MeOH, RT): 1700 to 3400 µg/mL (≈ 7.17 to 14.3 mM)
- solubility ([4]; organic solvent or mixture, NMP, RT): > 48000 µg/mL
- solubility ([4]; organic solvent or mixture, THF, RT): < 1900 µg/mL
- solubility ([4]; organic solvent or mixture, Toluene, RT): < 2400 µg/mL
- solubility ([4]; organic solvent or mixture, n-Heptane, RT): < 2100 µg/mL
- solubility ([4]; water, H2O, RT): 1600 to 3200 µg/mL (≈ 6.74 to 13.5 mM)
Structure (SMILES): C[C@H](O)C(=O)C1=Nc2c(nc(N)[nH]c2=O)NC1 [Form A, sepiapterin]
- Physical form stability to grinding and sieving (XRPD) [2]: no form change was observed after grinding; also recorded: stable to the grinding and sieving process; also recorded: confirms the physical form stability
